According to patent US20140364454A1, “METAL-CHELATING COMPOUNDS HAVING AT LEAST ONE POLYAMINO CHAIN” (UNIVERSITE DE RENNES I, priority 2011, published 2014):
Like-named read-outs stand apart in the source and are kept apart here.

Legend:
[1] = pH 7.4; stated reference values; cited from earlier work
[2] = Potentiometry: stability constants and pFe3+ of the iron complex; format: physicochemical; conditions: pH 7.4
Protocol: The complexation affinity of Quilamine with the metal ion in the organism reflects the chelating capacity or chelating power of Quilamine. This affinity can be assessed by measuring the value of pW corresponding to −log of the concentration in free metal ion W, i.e. non-complexated by the Quilamine for a ratio of respective concentrations of Quilamine (10 micromoles per liter) and metal ion (1 micromole per liter) equal to 10, at 25° C. and pH 7.4. The higher the value of pW, the greater the affinity of Quilamine with metal ion. The affinity of Quilamine with iron in its ferric form (Fe(III)) and its ferrous form (Fe(II)) is measured respectively by pFe^3+ and pFe^2+ at physiological pH (pH=7.4), at 25° C.
Potentiometry measurements were made in thermostated titration cells at 25±0.1° C., using a Metrohm 702 SM Titrino titrator connected to a Metrohm 6.0233.100. The ligand solution is prepared in a concentration of ˜1.5×10^−3 moles per liter, the solution of Fe^3+ is made from FeCl3 and titrated by complexation with a standard solution of EDTA (ethylenediaminetetracetic acid). The sample for the measurement contained approximately 0.03 millimoles per liter of ligand in a volume of 30 ml where the ionic strength is maintained at 0.1 mole per liter in using KNO3 as a support electrolyte. During the titrations, Fe^3+ is added to 0.45 or 0.9 equivalents of ligand. Each titration consists of 150-200 equilibrium points with pH varying from 2.0 to 11.5, and is repeated at least twice. The thermodynamic constants are computed with the software […] and the speciation diagram of the species is done by the Hyss program.

[3] = system: wild cell line (CHO) of hamster ovarian cells; experiment: Anti-proliferative effect on CHO cells, counting of cell nuclei (Hoechst 33342); format: cell-based; conditions: CHO, 72 h, read-out: IC50 CHO
Protocol: (§1) The in vitro efficacy of different Quilamines was tested on a wild cell line (CHO) of hamster ovarian cells having PTS and a mutant cell line CHO-MG without PTS. The two cell types CHO and CHO-MG were treated, 24 hours after being seeded in 96-well microplates, by concentrations of different Quilamines ranging from 0.1 to 400 micromoles per liter. The cytostatic (anti-proliferative) effects and cytotoxic effects of Quilamine after 72 hours' treatment of the cells were assessed respectively by counting cell nuclei after DNA marking by the Hoechst 33342 fluorescent intercalant dye and by analysis of membrane damage detected by the dosing of the lactate dehydrogenase activity (LHD) in the supernatants.
The IC50 inhibitor concentration corresponding to the concentration in Quilamines enables the inhibition at 50% of the cell proliferation was deduced from the dose-effect curves of numeration of the nuclei of the living cells on the CHO and CHO-MG cell lines. […] The lower the value of IC50, the greater the efficiency of the anti-proliferative effect of the tested chelators.
(§2) A comparison was made of the cytostatic or anti-proliferative action and the cytotoxic action for 72 h of treatment by Quilamine HQ1-44 and 8-hydroxyquinoline and ICL670, on the CHO cell lines in the presence and without the presence of exogenous iron, in the form of Fe(III) citrate in a concentration of 20 micromoles per liter. The results obtained are shown in FIG. 4, FIG. 4A relating to the results on cell viability and FIG. 4B relating to the results on cell toxicity.

[4] = system: mutant cell line CHO-MG without PTS; experiment: Anti-proliferative effect on CHO-MG cells without PTS, counting of cell nuclei; format: cell-based, hamster
Excerpt: The IC50 inhibitor concentration corresponding to the concentration in Quilamines enables the inhibition at 50% of the cell proliferation was deduced from the dose-effect curves of numeration of the nuclei of the living cells on the CHO and CHO-MG cell lines. These dose-effect curves are sometimes bi-phase curves as in the case of Quilamine HQ1-44 which has an anti-proliferative constituent (without concomitant release of LDH in supernatant) in the range of concentrations of 0.4 to 3 micromoles per liter and a second cytotoxic constituent accompanied by membrane toxicity expressed by the release of LDH for concentrations of over […]. The lower the value of IC50, the greater the efficiency of the anti-proliferative effect of the tested chelators.
Furthermore, the ratio of the IC50 inhibitor concentrations found for the CHO-MG and the CHO cell lines (Ratio IC50 (CHO-MG/CHO)) was computed for several Quilamines according to the invention. This ratio makes it possible to estimate the selectivity of recognition of the different chelators by the PTS: the higher the ratio, the more clearly is the chelator recognized by the PTS. When this ratio is close to 1, the tested chelator is not recognized or is little recognized by the PTS.

CHO cells = experiment: Cytotoxic effect on CHO cells, LDH release in supernatants; conditions: CHO
Protocol: as §1, §2

Caco-2 cells [5] = experiment: Cell viability of proliferating Caco-2 cells (number of nuclei); format: cell-based, human
Protocol: (§3) The action of Quilamines on the cell viability was analyzed on enterocyte cells of the Caco-2 tumor cell line derived from human colon carcinoma and compared with the action of ICL670 in the presence or absence of exogenous iron, after activation (DFMO) or competitive inhibition by spermidine, of the PTS. The operating conditions used are identical to those used for CHO/CHO-MG and HepG2 cells.
The results for the measurement of the anti-proliferative effect of Quilamines, and of ICL670 on the proliferating cells (cytostatic constituent) when there is no exogenous iron have been listed in the table 4 below.

Caco-2 cells [6] = experiment: LDH release of Caco-2 cells; format: cell-based, human
Protocol: as §3
As in the case of the other cell lines in proliferative phase presented here above, the dose-effect curves of the action of the Quilamines on the number of viable cells (number of nuclei) are biphase curves with a cytostatic constituent for concentration values of below 30 micromoles per liter and a cytotoxic constituent with release of LDH for concentration values above 30 micromoles per liter. Only this second cytotoxic constituent is observed when the cells of the Caco-2 cell line are treated after confluence (stopping of the proliferation).

Q: Which “pFe3+” value [1] does the source give for `O=C(O)CC(O)(CC(=O)O)C(=O)O` [citrate] here?
A: 19.3

Q: Which results are given for `Oc1cccc2cccnc12` [8-hydroxyquinoline, reference compound]?
A: pFe3+ [2]: 20.6; IC50 [3]: 5 µM; IC50 ([4]; CHO-MG, 72 h treatment): 10.5 µM; Ratio IC50 (CHO-MG/CHO) ([4]; selectivity of recognition by the PTS): 2; influence of exogenous iron on the cytotoxic effect (CHO cells; Fe(III) citrate 20 micromoles per liter): no modification; chelator concentration giving cytotoxic effect with release of LDH (CHO cells; absence of exogenous iron): greater than or equal to 5 micromoles per liter; Constituent 2 (10-100 μM) % cell (Caco-2 cells [5]; Caco-2 J4, no exogenous iron): 100%; IC50 (Caco-2 cells [5]; Homo sapiens, Caco-2, read-out: Constituent 2 (10-100 μM) IC50): 5 µM; % LDH/control 10 μM (Caco-2 cells [6]; Caco-2 J4, 10 μM): 281%; % LDH/control 100 μM (Caco-2 cells [6]; Caco-2 J4, 100 μM): 353%

Q: Which “pFe3+” value [1] does the source give for `O=C(O)CN(CC(=O)O)Cc1cc2c(cc1O)Oc1cc(O)c(CN(CC(=O)O)CC(=O)O)cc1C21OC(=O)c2ccccc21` [Calcein, reference compound] here?
A: 20.3
